Measured values: patent US20250171431A1, “HETEROCYCLIC INHIBITORS OF IGF-1R FOR TREATMENT OF DISEASE” (HORIZON THERAPEUTICS IRELAND DAC, priority 2023, published 2025)

These compounds were tested against IGF-1R (Homo sapiens (Human), UniProt P08069) (assay: Example B-1: IGF-1R Assay (PC3 cells, IGF1 stimulation, AlphaLISA)). Details: 200 ng/mL IGF1 stimulation, read-out: Biological Activity against IGF-1R IC50.
Assay type: cell-based
Method in brief: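 PC3 cells were serum-starved 2 h, treated with serially diluted compounds for 2 h, then stimulated with IGF1 (200 ng/mL final) for 30 min. Lysates were read by AlphaLISA; % inhibition was calculated relative to vehicle and EC80 controls, with IC50 values binned into ranges.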

IGF-1R, sequence (P08069 31-1367): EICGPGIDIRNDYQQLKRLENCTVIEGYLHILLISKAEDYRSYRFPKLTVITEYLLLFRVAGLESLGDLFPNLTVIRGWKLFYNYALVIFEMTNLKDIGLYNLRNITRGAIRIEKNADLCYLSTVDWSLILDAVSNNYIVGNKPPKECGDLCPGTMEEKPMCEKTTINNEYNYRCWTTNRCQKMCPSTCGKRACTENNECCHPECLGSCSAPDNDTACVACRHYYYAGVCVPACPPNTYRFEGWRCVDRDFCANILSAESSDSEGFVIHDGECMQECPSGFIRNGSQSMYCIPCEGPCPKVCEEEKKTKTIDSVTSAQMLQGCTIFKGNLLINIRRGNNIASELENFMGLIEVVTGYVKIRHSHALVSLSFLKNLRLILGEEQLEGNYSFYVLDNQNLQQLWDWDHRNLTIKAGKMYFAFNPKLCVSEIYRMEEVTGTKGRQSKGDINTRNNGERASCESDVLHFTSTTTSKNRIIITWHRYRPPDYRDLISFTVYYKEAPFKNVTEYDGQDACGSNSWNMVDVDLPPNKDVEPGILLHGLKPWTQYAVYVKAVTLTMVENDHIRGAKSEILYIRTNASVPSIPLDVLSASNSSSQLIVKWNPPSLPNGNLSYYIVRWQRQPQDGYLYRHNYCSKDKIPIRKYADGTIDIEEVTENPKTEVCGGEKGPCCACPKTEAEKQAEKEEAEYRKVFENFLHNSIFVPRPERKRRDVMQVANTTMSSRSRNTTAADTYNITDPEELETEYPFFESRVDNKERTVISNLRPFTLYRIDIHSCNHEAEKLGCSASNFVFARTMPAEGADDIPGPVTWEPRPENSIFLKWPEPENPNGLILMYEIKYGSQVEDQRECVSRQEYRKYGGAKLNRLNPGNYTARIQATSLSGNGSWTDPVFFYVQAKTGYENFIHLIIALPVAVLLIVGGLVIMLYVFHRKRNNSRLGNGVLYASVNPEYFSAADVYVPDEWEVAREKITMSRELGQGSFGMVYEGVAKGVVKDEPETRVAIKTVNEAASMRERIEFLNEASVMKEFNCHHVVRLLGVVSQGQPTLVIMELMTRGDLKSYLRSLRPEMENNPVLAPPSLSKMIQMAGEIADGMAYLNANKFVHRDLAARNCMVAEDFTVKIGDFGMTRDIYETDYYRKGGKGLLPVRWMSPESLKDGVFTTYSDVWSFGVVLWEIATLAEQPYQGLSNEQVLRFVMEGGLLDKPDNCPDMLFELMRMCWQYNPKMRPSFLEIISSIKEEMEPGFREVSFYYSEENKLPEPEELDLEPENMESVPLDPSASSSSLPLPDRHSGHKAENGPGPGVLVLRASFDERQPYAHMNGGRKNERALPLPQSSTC

`COc1cc(Nc2nccc(Nc3cc(C)c4ccccc4c3)n2)ccc1OCCCN1CCCCC1` [Compound 454, 2-[3-methoxy-4-(3-piperidinopropoxy)phenylamino]-4-(4-methyl-2-naphthylamino) pyrimidine] and `COc1cc(Nc2nccc(Nc3cc(Cl)c4ncccc4c3)n2)ccc1OCCCN1CCCCC1` [Compound 457, 4-(8-chloro-6-quinolylamino)-2-[3-methoxy-4-(3-piperidinopropoxy)phenylamino] pyrimidine] cannot be ordered by IC50: at most 500 nM for the first, at most 500 nM for the second.

`COc1cc(Nc2nccc(Nc3ccc4nc(C)ccc4c3)n2)ccc1OCCCN1CCCCC1` [Compound 456, 2-[3-methoxy-4-(3-piperidinopropoxy)phenylamino]-4-(2-methyl-6-quinolylamino) pyrimidine] and `COc1cc(Nc2nccc(Nc3cnc4ccc(Cl)cc4c3)n2)ccc1N1CCOCC1` [Compound 462, 4-(6-chloro-3-quinolylamino)-2-(3-methoxy-4-morpholinophenylamino) pyrimidine] cannot be ordered by IC50: at most 500 nM for the first, at most 500 nM for the second.

`Clc1cc(Nc2nccc(Nc3cnc4ccccc4c3)n2)ccc1N1CCOCC1` [Compound 459, 2-(3-chloro-4-morpholinophenylamino)-4-(3-quinolylamino)pyrimidine] and `COc1cc(Nc2nccc(Nc3cnc4c(Cl)cccc4c3)n2)ccc1N1CCOCC1` [Compound 461, 4-(8-chloro-3-quinolylamino)-2-(3-methoxy-4-morpholinophenylamino) pyrimidine] cannot be ordered by IC50: at most 500 nM for the first, at most 500 nM for the second.

`COc1ccc2cc(Nc3ccnc(Nc4ccc(N5CCN(C)CC5)cc4OC)n3)cnc2c1` [Compound 463, 2-[2-methoxy-4-(4-methyl-1-piperazinyl)phenylamino]-4-(7-methoxy-3-quinolylamino)pyrimidine] and `COc1cc(N2CCN(C)CC2)ccc1Nc1nccc(Nc2cnc3cc(Cl)ccc3c2)n1` [Compound 464, 4-(7-chloro-3-quinolylamino)-2-[2-methoxy-4-(4-methyl-1-piperazinyl)phenylamino] pyrimidine] cannot be ordered by IC50: at most 500 nM for the first, at most 500 nM for the second.

`CC(O)C(=O)N1CCN(c2ccc(Nc3nccc(Nc4cnc5ccccc5c4)n3)cc2)CC1` (centres unmarked) [Compound 465, 2-hydroxy-1-(4-{p-[4-(3-quinolylamino)-2-pyrimidinylamino]phenyl}-1-piperazinyl)-1-propanone] and `COc1cc(N2CCN(C)CC2)ccc1Nc1nccc(Nc2cnc3c(Cl)cccc3c2)n1` [Compound 467, 4-(8-chloro-3-quinolylamino)-2-[2-methoxy-4-(4-methyl-1-piperazinyl)phenylamino] pyrimidine] cannot be ordered by IC50: at most 500 nM for the first, at most 500 nM for the second.

`COc1cc(Nc2nccc(Nc3cnc4cc(F)c(F)cc4c3)n2)cnc1N1CCN(C)CC1` [Compound 468, 4-(6,7-difluoro-3-quinolylamino)-2-[5-methoxy-6-(4-methyl-1-piperazinyl)-3-pyridylamino]pyrimidine] and `COc1cc(N2CCN(C)CC2)ncc1Nc1nccc(Nc2cnc3cc(F)c(F)cc3c2)n1` [Compound 473, 4-(6,7-difluoro-3-quinolylamino)-2-[4-methoxy-6-(4-methy1-1-piperazinyl)-3-pyridylamino]pyrimidine] cannot be ordered by IC50: at most 500 nM for the first, at most 500 nM for the second.

`COc1cc(Nc2nccc(Nc3cnc4cc(F)c(F)cc4c3)n2)cnc1N1CCOCC1` [Compound 469, 4-(6,7-difluoro-3-quinolylamino)-2-(5-methoxy-6-morpholino-3-pyridylamino)pyrimidine] and `COc1cc(Nc2nccc(Nc3cnc4cc(F)c(F)cc4c3)n2)cnc1N1CCNCC1` [Compound 478, 4-(6,7-difluoro-3-quinolylamino)-2-[5-methoxy-6-(1-piperazinyl)-3-pyridylamino]pyrimidine] cannot be ordered by IC50: at most 500 nM for the first, at most 500 nM for the second.

First: COc1cc(Nc2nccc(Nc3cnc4cc(F)c(F)cc4c3)n2)cnc1N1CCNC(=O)C1 [Compound 471, 4-{5-[4-(6,7-difluoro-3-quinolylamino)-2-pyrimidinylamino]-3-methoxy-2-pyridyl}-2-piperazinone]
Second: COc1cc(Nc2nccc(Nc3cnc4cc(F)c(F)cc4c3)n2)cnc1N1CCNC(C(F)F)C1 (centres unmarked) [Compound 482, 2-{6-[3-(difluoromethyl)-1-piperazinyl]-5-methoxy-3-pyridylamino}-4-(6,7-difluoro-3-quinolylamino)pyrimidine]
The IC50 of the first is higher: over 10000 nM for the first, at most 500 nM for the second. The second is the more potent here.

`COc1nc(N2CCN(C)CC2)ccc1Nc1nccc(Nc2cnc3cc(F)c(F)cc3c2)n1` [Compound 472, 4-(6,7-difluoro-3-quinolylamino)-2-[2-methoxy-6-(4-methyl-1-piperazinyl)-3-pyridylamino]pyrimidine] and `COc1nc(N2CCC(C)(O)CC2)ccc1Nc1nccc(Nc2cnc3cc(F)c(F)cc3c2)n1` [Compound 487, 1-{5-[4-(6,7-difluoro-3-quinolylamino)-2-pyrimidinylamino]-6-methoxy-2-pyridyl}-4-methyl-4-piperidinol] cannot be ordered by IC50: at most 500 nM for the first, at most 500 nM for the second.

`COc1cc(Nc2nccc(Nc3cnc4cc(F)c(F)cc4c3)n2)cnc1N1CCN(CC(F)(F)F)CC1` [Compound 474, 4-(6,7-difluoro-3-quinolylamino)-2-{5-methoxy-6-[4-(2,2,2-trifluoroethyl)-1-piperazinyl]-3-pyridylamino}pyrimidine] and `COc1cc(Nc2nccc(Nc3cnc4cc(F)c(F)cc4c3)n2)cnc1N1CCN(C)C(C(F)(F)F)C1` (centres unmarked) [Compound 475, 4-(6,7-difluoro-3-quinolylamino)-2-{5-methoxy-6-[4-methyl-3-(trifluoromethyl)-1-piperazinyl]-3-pyridylamino}pyrimidine] fall in the same range of IC50: 500 to 2000 nM for the first, 500 to 2000 nM for the second.

`COc1cc(Nc2nccc(Nc3cnc4ccc(Cl)cc4c3)n2)cnc1N1CCC(C)(O)CC1` [Compound 476, 1-{5-[4-(6-chloro-3-quinolylamino)-2-pyrimidinylamino]-3-methoxy-2-pyridyl}-4-methyl-4-piperidinol] and `COc1cc(N2CCC(C)(O)CC2)ncc1Nc1nccc(Nc2cnc3ccc(Cl)cc3c2)n1` [Compound 490, 1-{5-[4-(6-chloro-3-quinolylamino)-2-pyrimidinylamino]-4-methoxy-2-pyridyl}-4-methyl-4-piperidinol] cannot be ordered by IC50: at most 500 nM for the first, at most 500 nM for the second.

`COc1cc(Nc2nccc(Nc3cnc4ccc(Cl)cc4c3)n2)cnc1N1CCN(C)CC1` [Compound 477, 4-(6-chloro-3-quinolylamino)-2-[5-methoxy-6-(4-methyl-1-piperazinyl)-3-pyridylamino]pyrimidine] and `COc1cc(Nc2nccc(Nc3cnc4ccc(Cl)cc4c3)n2)cnc1N1CCN(CC#N)CC1` [Compound 479, (4-{5-[4-(6-chloro-3-quinolylamino)-2-pyrimidinylamino]-3-methoxy-2-pyridyl}-1-piperazinyl)acetonitrile] cannot be ordered by IC50: at most 500 nM for the first, at most 500 nM for the second.

`COc1cc(Nc2nccc(Nc3cnc4ccc(Cl)cc4c3)n2)cnc1N1CCN(C)C(C)(C)C1` [Compound 480, 4-(6-chloro-3-quinolylamino)-2-[6-(3,3-dimethyl-4-methyl-1-piperazinyl)-5-methoxy-3-pyridylamino] pyrimidine] and `COc1cc(Nc2nccc(Nc3cnc4cc(F)c(F)cc4c3)n2)cnc1N1CCN(C)C(C)(C)C1` [Compound 484, 4-(6,7-difluoro-3-quinolylamino)-2-[6-(3,3-dimethyl-4-methyl-1-piperazinyl)-5-methoxy-3-pyridylamino]pyrimidine] cannot be ordered by IC50: at most 500 nM for the first, at most 500 nM for the second.

`COc1cc(Nc2nccc(Nc3cnc4ccc(Cl)cc4c3)n2)cnc1N1CCN(C2COC2)CC1` [Compound 481, 4-(6-chloro-3-quinolylamino)-2-{5-methoxy-6-[4-(3-oxetanyl)-1-piperazinyl]-3-pyridylamino}pyrimidine] and `COc1cc(N2CCN(C3COC3)CC2)ncc1Nc1nccc(Nc2cnc3ccc(Cl)cc3c2)n1` [Compound 494, 4-(6-chloro-3-quinolylamino)-2-{4-methoxy-6-[4-(3-oxetanyl)-1-piperazinyl]-3-pyridylamino}pyrimidine] cannot be ordered by IC50: at most 500 nM for the first, at most 500 nM for the second.

`COc1nc(N2CCN(C)CC2)ccc1Nc1nccc(Nc2cnc3ccc(Cl)cc3c2)n1` [Compound 485, 4-(6-chloro-3-quinolylamino)-2-[2-methoxy-6-(4-methyl-1-piperazinyl)-3-pyridylamino]pyrimidine] and `COc1nc(N2CCC(C)(O)CC2)ccc1Nc1nccc(Nc2cnc3ccc(Cl)cc3c2)n1` [Compound 489, 1-{5-[4-(6-chloro-3-quinolylamino)-2-pyrimidinylamino]-6-methoxy-2-pyridyl}-4-methyl-4-piperidinol] cannot be ordered by IC50: at most 500 nM for the first, at most 500 nM for the second.

`COc1cc(N2CCN(C)CC2)ncc1Nc1nccc(Nc2cnc3ccc(Cl)cc3c2)n1` [Compound 486, 4-(6-chloro-3-quinolylamino)-2-[4-methoxy-6-(4-methyl-1-piperazinyl)-3-pyridylamino]pyrimidine] and `COc1cc(N2CCC(C)(O)CC2)ncc1Nc1nccc(Nc2cnc3cc(F)c(F)cc3c2)n1` [Compound 488, 1-{5-[4-(6,7-difluoro-3-quinolylamino)-2-pyrimidinylamino]-4-methoxy-2-pyridyl}-4-methyl-4-piperidinol] cannot be ordered by IC50: at most 500 nM for the first, at most 500 nM for the second.

`COc1cc(Nc2ncc(F)c(Nc3cc4ccccc4nc3C(N)=O)n2)cnc1N1CCC(C)(O)CC1` [Compound 491, 3-{5-fluoro-2-[6-(4-hydroxy-4-methyl-1-piperidyl)-5-methoxy-3-pyridylamino]-4-pyrimidinylamino}-2-quinolinecarboxamide] and `COc1cc(N2CCC(C)(O)CC2)ncc1Nc1ncc(F)c(Nc2cc3ccccc3nc2C(N)=O)n1` [Compound 492, 3-{5-fluoro-2-[6-(4-hydroxy-4-methyl-1-piperidyl)-4-methoxy-3-pyridylamino]-4-pyrimidinylamino}-2-quinolinecarboxamide] cannot be ordered by IC50: at most 500 nM for the first, at most 500 nM for the second.

Work on `COc1cc(N2CCN(CC#N)CC2)ncc1Nc1ncc(F)c(Nc2cc3ccccc3nc2C(N)=O)n1` [Compound 493, 3-(2-{6-[4-(cyanomethyl)-1-piperazinyl]-4-methoxy-3-pyridylamino}-5-fluoro-4-pyrimidinylamino)-2-quinolinecarboxamide] yielded an IC50 of at most 500 nM.
